Measurements published in patent US20230111310A1, “CARBOXYLIC ACID DERIVATIVE-SUBSTITUTED IMINO ARYL COMPOUND, PREPARATION METHOD THEREFOR, HERBICIDAL COMPOSITION AND USE THEREOF” (Qingdao Kingagroot Chemical Compound Co., Ltd., priority 2020, published 2023).

Tests used:
Experiment in all cases: Weeding effect in post-emergence stage
Format in all cases: in vivo
Details in all cases: fresh weight control rate level
Abutilon theophrasti = test system: Abutilon theophrasti
Procedure, shortened: (§1)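 Pot-grown weeds were sprayed at the 2-3 leaf stage, 2 weeks after sowing, with compound in acetone plus Tween 80 and 1.5 liter/ha methyl oleate emulsifiable concentrate, diluted in water. Doses were 500, 250, 125, 60, 30, 15, 7.5 g/ha. Growth control was scored after 3 weeks in greenhouse; mean of three replicates.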

Alopecurus japonicus = test system: Alopecurus japonicus
Procedure, shortened: as §1

Digitaria sanguinalis = test system: Digitaria sanguinalis
Procedure, shortened: as §1

Eleusine indica = test system: Eleusine indica
Procedure, shortened: as §1

Setaria viridis = test system: Setaria viridis
Procedure, shortened: as §1

Echinochloa crusgalli = test system: Echinochloa crusgalli
Procedure, shortened: as §1

COC(=O)C(C)O/N=C/c1cc(-n2c(=S)cc(C(F)(F)F)n(C)c2=O)c(F)cc1Br (racemic) [Compound 388]
Weeding effect in post-emergence stage, Abutilon theophrasti (level) (Abutilon theophrasti; Dose 15 g/ha): 5 (Level 5: growth control rate is above 85%) | Weeding effect in post-emergence stage, Alopecurus japonicus (level) (Alopecurus japonicus; Dose 15 g/ha): 4 (Level 4: growth control rate is greater than or equal to 60% and less than 85%) | Weeding effect in post-emergence stage, Digitaria sanguinalis (level) (Digitaria sanguinalis; Dose 15 g/ha): 5 (Level 5: growth control rate is above 85%) | Weeding effect in post-emergence stage, Eleusine indica (level) (Eleusine indica; Dose 15 g/ha): 5 (Level 5: growth control rate is above 85%) | Weeding effect in post-emergence stage, Setaria viridis (level) (Setaria viridis; Dose 15 g/ha): 5 (Level 5: growth control rate is above 85%) | Weeding effect in post-emergence stage, Echinochloa crusgalli (level) (Echinochloa crusgalli; Dose 15 g/ha): 5 (Level 5: growth control rate is above 85%)

COC(=O)C(C)O/N=C/c1cc(-n2c(=S)cc(C(F)(F)F)n(C)c2=S)c(F)cc1C#N (racemic) [Compound 390]
Weeding effect in post-emergence stage, Abutilon theophrasti (level) (Abutilon theophrasti; Dose 15 g/ha): 5 (Level 5: growth control rate is above 85%) | Weeding effect in post-emergence stage, Alopecurus japonicus (level) (Alopecurus japonicus; Dose 15 g/ha): 5 (Level 5: growth control rate is above 85%) | Weeding effect in post-emergence stage, Digitaria sanguinalis (level) (Digitaria sanguinalis; Dose 15 g/ha): 5 (Level 5: growth control rate is above 85%) | Weeding effect in post-emergence stage, Eleusine indica (level) (Eleusine indica; Dose 15 g/ha): 5 (Level 5: growth control rate is above 85%) | Weeding effect in post-emergence stage, Setaria viridis (level) (Setaria viridis; Dose 15 g/ha): 5 (Level 5: growth control rate is above 85%) | Weeding effect in post-emergence stage, Echinochloa crusgalli (level) (Echinochloa crusgalli; Dose 15 g/ha): 5 (Level 5: growth control rate is above 85%)

COC(=O)C(C)O/N=C/c1cc(-n2c(=S)cc(C(F)(F)F)n(C)c2=S)c(F)cc1Br (racemic) [Compound 391]
Weeding effect in post-emergence stage, Abutilon theophrasti (level) (Abutilon theophrasti; Dose 60 g/ha): 5 (Level 5: growth control rate is above 85%) | Weeding effect in post-emergence stage, Alopecurus japonicus (level) (Alopecurus japonicus; Dose 60 g/ha): 5 (Level 5: growth control rate is above 85%) | Weeding effect in post-emergence stage, Digitaria sanguinalis (level) (Digitaria sanguinalis; Dose 60 g/ha): 5 (Level 5: growth control rate is above 85%) | Weeding effect in post-emergence stage, Eleusine indica (level) (Eleusine indica; Dose 60 g/ha): 5 (Level 5: growth control rate is above 85%) | Weeding effect in post-emergence stage, Setaria viridis (level) (Setaria viridis; Dose 60 g/ha): 5 (Level 5: growth control rate is above 85%) | Weeding effect in post-emergence stage, Echinochloa crusgalli (level) (Echinochloa crusgalli; Dose 60 g/ha): 5 (Level 5: growth control rate is above 85%)

COC(=O)C(C)O/N=C/c1cc(-n2c(=S)cc(C(F)(F)F)n(C)c2=S)c(F)cc1C(F)(F)F (racemic) [Compound 392]
Weeding effect in post-emergence stage, Abutilon theophrasti (level) (Abutilon theophrasti; Dose 60 g/ha): 5 (Level 5: growth control rate is above 85%) | Weeding effect in post-emergence stage, Alopecurus japonicus (level) (Alopecurus japonicus; Dose 60 g/ha): 5 (Level 5: growth control rate is above 85%) | Weeding effect in post-emergence stage, Digitaria sanguinalis (level) (Digitaria sanguinalis; Dose 60 g/ha): 5 (Level 5: growth control rate is above 85%) | Weeding effect in post-emergence stage, Eleusine indica (level) (Eleusine indica; Dose 60 g/ha): 5 (Level 5: growth control rate is above 85%) | Weeding effect in post-emergence stage, Setaria viridis (level) (Setaria viridis; Dose 60 g/ha): 5 (Level 5: growth control rate is above 85%) | Weeding effect in post-emergence stage, Echinochloa crusgalli (level) (Echinochloa crusgalli; Dose 60 g/ha): 5 (Level 5: growth control rate is above 85%)

COC(=O)C(C)O/N=C/c1cc(-n2c(=S)cc(C(F)(F)F)n(C)c2=S)c(F)cc1C#N (racemic) [Compound 393]
Weeding effect in post-emergence stage, Abutilon theophrasti (level) (Abutilon theophrasti; Dose 60 g/ha): 5 (Level 5: growth control rate is above 85%) | Weeding effect in post-emergence stage, Alopecurus japonicus (level) (Alopecurus japonicus; Dose 60 g/ha): 5 (Level 5: growth control rate is above 85%) | Weeding effect in post-emergence stage, Digitaria sanguinalis (level) (Digitaria sanguinalis; Dose 60 g/ha): 5 (Level 5: growth control rate is above 85%) | Weeding effect in post-emergence stage, Eleusine indica (level) (Eleusine indica; Dose 60 g/ha): 5 (Level 5: growth control rate is above 85%) | Weeding effect in post-emergence stage, Setaria viridis (level) (Setaria viridis; Dose 60 g/ha): 5 (Level 5: growth control rate is above 85%) | Weeding effect in post-emergence stage, Echinochloa crusgalli (level) (Echinochloa crusgalli; Dose 60 g/ha): 5 (Level 5: growth control rate is above 85%)

COC(=O)C(C)O/N=C/c1cc(-n2c(=O)cc(C(F)(F)F)n(C)c2=S)c(F)cc1Br (racemic) [Compound 394]
Weeding effect in post-emergence stage, Abutilon theophrasti (level) (Abutilon theophrasti; Dose 60 g/ha): 5 (Level 5: growth control rate is above 85%) | Weeding effect in post-emergence stage, Alopecurus japonicus (level) (Alopecurus japonicus; Dose 60 g/ha): 5 (Level 5: growth control rate is above 85%) | Weeding effect in post-emergence stage, Digitaria sanguinalis (level) (Digitaria sanguinalis; Dose 60 g/ha): 5 (Level 5: growth control rate is above 85%) | Weeding effect in post-emergence stage, Eleusine indica (level) (Eleusine indica; Dose 60 g/ha): 5 (Level 5: growth control rate is above 85%) | Weeding effect in post-emergence stage, Setaria viridis (level) (Setaria viridis; Dose 60 g/ha): 5 (Level 5: growth control rate is above 85%) | Weeding effect in post-emergence stage, Echinochloa crusgalli (level) (Echinochloa crusgalli; Dose 60 g/ha): 5 (Level 5: growth control rate is above 85%)

COC(=O)C(C)O/N=C/c1cc(-n2c(=O)cc(C(F)(F)F)n(C)c2=S)c(F)cc1C(F)(F)F (racemic) [Compound 395]
Weeding effect in post-emergence stage, Abutilon theophrasti (level) (Abutilon theophrasti; Dose 60 g/ha): 5 (Level 5: growth control rate is above 85%) | Weeding effect in post-emergence stage, Alopecurus japonicus (level) (Alopecurus japonicus; Dose 60 g/ha): 5 (Level 5: growth control rate is above 85%) | Weeding effect in post-emergence stage, Digitaria sanguinalis (level) (Digitaria sanguinalis; Dose 60 g/ha): 5 (Level 5: growth control rate is above 85%) | Weeding effect in post-emergence stage, Eleusine indica (level) (Eleusine indica; Dose 60 g/ha): 5 (Level 5: growth control rate is above 85%) | Weeding effect in post-emergence stage, Setaria viridis (level) (Setaria viridis; Dose 60 g/ha): 5 (Level 5: growth control rate is above 85%) | Weeding effect in post-emergence stage, Echinochloa crusgalli (level) (Echinochloa crusgalli; Dose 60 g/ha): 5 (Level 5: growth control rate is above 85%)

COC(=O)C(C)O/N=C/c1cc(-n2c(=O)cc(C(F)(F)F)n(C)c2=S)c(F)cc1C#N (racemic) [Compound 396]
Weeding effect in post-emergence stage, Abutilon theophrasti (level) (Abutilon theophrasti; Dose 60 g/ha): 5 (Level 5: growth control rate is above 85%) | Weeding effect in post-emergence stage, Alopecurus japonicus (level) (Alopecurus japonicus; Dose 60 g/ha): 5 (Level 5: growth control rate is above 85%) | Weeding effect in post-emergence stage, Digitaria sanguinalis (level) (Digitaria sanguinalis; Dose 60 g/ha): 5 (Level 5: growth control rate is above 85%) | Weeding effect in post-emergence stage, Eleusine indica (level) (Eleusine indica; Dose 60 g/ha): 5 (Level 5: growth control rate is above 85%) | Weeding effect in post-emergence stage, Setaria viridis (level) (Setaria viridis; Dose 60 g/ha): 5 (Level 5: growth control rate is above 85%) | Weeding effect in post-emergence stage, Echinochloa crusgalli (level) (Echinochloa crusgalli; Dose 60 g/ha): 5 (Level 5: growth control rate is above 85%)

COC(=O)C(CC(C)C)O/N=C/c1cc(-n2c(=O)cc(C(F)(F)F)n(C)c2=O)c(F)cc1Cl (racemic) [Compound 455]
Weeding effect in post-emergence stage, Abutilon theophrasti (level) (Abutilon theophrasti; Dose 15 g/ha): 5 (Level 5: growth control rate is above 85%) | Weeding effect in post-emergence stage, Alopecurus japonicus (level) (Alopecurus japonicus; Dose 15 g/ha): 5 (Level 5: growth control rate is above 85%) | Weeding effect in post-emergence stage, Digitaria sanguinalis (level) (Digitaria sanguinalis; Dose 15 g/ha): 5 (Level 5: growth control rate is above 85%) | Weeding effect in post-emergence stage, Eleusine indica (level) (Eleusine indica; Dose 15 g/ha): 5 (Level 5: growth control rate is above 85%) | Weeding effect in post-emergence stage, Setaria viridis (level) (Setaria viridis; Dose 15 g/ha): 5 (Level 5: growth control rate is above 85%) | Weeding effect in post-emergence stage, Echinochloa crusgalli (level) (Echinochloa crusgalli; Dose 15 g/ha): 5 (Level 5: growth control rate is above 85%)

COC(=O)C(O/N=C/c1cc(-n2c(=O)cc(C(F)(F)F)n(C)c2=O)c(F)cc1Cl)C1CC1 (racemic) [Compound 456]
Weeding effect in post-emergence stage, Abutilon theophrasti (level) (Abutilon theophrasti; Dose 30 g/ha): 5 (Level 5: growth control rate is above 85%) | Weeding effect in post-emergence stage, Alopecurus japonicus (level) (Alopecurus japonicus; Dose 30 g/ha): 5 (Level 5: growth control rate is above 85%) | Weeding effect in post-emergence stage, Digitaria sanguinalis (level) (Digitaria sanguinalis; Dose 30 g/ha): 5 (Level 5: growth control rate is above 85%) | Weeding effect in post-emergence stage, Eleusine indica (level) (Eleusine indica; Dose 30 g/ha): 5 (Level 5: growth control rate is above 85%) | Weeding effect in post-emergence stage, Setaria viridis (level) (Setaria viridis; Dose 30 g/ha): 5 (Level 5: growth control rate is above 85%) | Weeding effect in post-emergence stage, Echinochloa crusgalli (level) (Echinochloa crusgalli; Dose 30 g/ha): 5 (Level 5: growth control rate is above 85%)

COC(=O)C(CC1CC1)O/N=C/c1cc(-n2c(=O)cc(C(F)(F)F)n(C)c2=O)c(F)cc1Cl (racemic) [Compound 462]
Weeding effect in post-emergence stage, Abutilon theophrasti (level) (Abutilon theophrasti; Dose 15 g/ha): 5 (Level 5: growth control rate is above 85%) | Weeding effect in post-emergence stage, Alopecurus japonicus (level) (Alopecurus japonicus; Dose 15 g/ha): 5 (Level 5: growth control rate is above 85%) | Weeding effect in post-emergence stage, Digitaria sanguinalis (level) (Digitaria sanguinalis; Dose 15 g/ha): 5 (Level 5: growth control rate is above 85%) | Weeding effect in post-emergence stage, Eleusine indica (level) (Eleusine indica; Dose 15 g/ha): 5 (Level 5: growth control rate is above 85%) | Weeding effect in post-emergence stage, Setaria viridis (level) (Setaria viridis; Dose 15 g/ha): 5 (Level 5: growth control rate is above 85%) | Weeding effect in post-emergence stage, Echinochloa crusgalli (level) (Echinochloa crusgalli; Dose 15 g/ha): 5 (Level 5: growth control rate is above 85%)

COC(=O)C(CF)O/N=C/c1cc(-n2c(=O)cc(C(F)(F)F)n(C)c2=O)c(F)cc1Cl (racemic) [Compound 463]
Weeding effect in post-emergence stage, Abutilon theophrasti (level) (Abutilon theophrasti; Dose 15 g/ha): 5 (Level 5: growth control rate is above 85%) | Weeding effect in post-emergence stage, Alopecurus japonicus (level) (Alopecurus japonicus; Dose 15 g/ha): 5 (Level 5: growth control rate is above 85%) | Weeding effect in post-emergence stage, Digitaria sanguinalis (level) (Digitaria sanguinalis; Dose 15 g/ha): 5 (Level 5: growth control rate is above 85%) | Weeding effect in post-emergence stage, Eleusine indica (level) (Eleusine indica; Dose 15 g/ha): 5 (Level 5: growth control rate is above 85%) | Weeding effect in post-emergence stage, Setaria viridis (level) (Setaria viridis; Dose 15 g/ha): 5 (Level 5: growth control rate is above 85%) | Weeding effect in post-emergence stage, Echinochloa crusgalli (level) (Echinochloa crusgalli; Dose 15 g/ha): 5 (Level 5: growth control rate is above 85%)

COC(=O)C(Cc1ccccc1)O/N=C/c1cc(-n2c(=O)cc(C(F)(F)F)n(C)c2=O)c(F)cc1Cl (racemic) [Compound 469]
Weeding effect in post-emergence stage, Abutilon theophrasti (level) (Abutilon theophrasti; Dose 15 g/ha): 5 (Level 5: growth control rate is above 85%) | Weeding effect in post-emergence stage, Alopecurus japonicus (level) (Alopecurus japonicus; Dose 15 g/ha): 5 (Level 5: growth control rate is above 85%) | Weeding effect in post-emergence stage, Digitaria sanguinalis (level) (Digitaria sanguinalis; Dose 15 g/ha): 5 (Level 5: growth control rate is above 85%) | Weeding effect in post-emergence stage, Eleusine indica (level) (Eleusine indica; Dose 15 g/ha): 5 (Level 5: growth control rate is above 85%) | Weeding effect in post-emergence stage, Setaria viridis (level) (Setaria viridis; Dose 15 g/ha): 5 (Level 5: growth control rate is above 85%) | Weeding effect in post-emergence stage, Echinochloa crusgalli (level) (Echinochloa crusgalli; Dose 15 g/ha): 5 (Level 5: growth control rate is above 85%)
